The values that follow come from patent US4873238A, “2-Pyridinecarbothioamides and pharmaceutical compositions comprising the same” (American Home Products Corporation, priority 1988, dated 1989).

Structures can show the parent of a compound that is named as a salt.

The subject of assay [1] is gastric mucosal lesions produced by ethanol. Nature of the assay: Ethanol induced cytotoxicity in rats (prevention of gastric mucosal lesions). The class given is in vivo, Male Sprague-Dawley rats. The conditions noted are these: for % Inhibition of lesion formation: 10 mg/kg oral, 1 hour prior to ethanol, rat; for ED50: Rattus norvegicus, po. How it is done:
The purpose of this assay is to evaluate the effectiveness of the compounds of the present invention in preventing the formation of gastric mucosal lesions produced by ethanol. The assay is based on A. Robert et al., Gastroenterology 77, 433-443 (1979). Male Sprague-Dawley rats weighing between 120-150 grams were fasted for 24 hours prior to the experiment (water ad libitum). At least two hours before dosing, the animals were placed in individual cages with wire grid bottoms and denied access to water. Ethanol was administered orally at 1 mL per animal. The compounds of the present invention were dissolved in water or suspended in water with 0.5% carboxymethylcellulose and administered orally at a dose based on an appropriate standard giving ED50 to ED75 response of cytoprotective activity. The rats were randomly divided into groups of equal number, ordinarily 10 to a group. The rats were weighed and the individual weights were recorded. Exactly 1 hour prior to the administration of ethanol, the screening group was treated with the compounds of the present invention and the control group with the vehicle. One hour after administering the ethanol, the animals were euthanized. The stomachs were removed, cut along the greater curvature, and cleansed of all debris with tap water. The stomachs were set aside and kept moist with saline until the lesions were scored. Macroscopic lesions on the gastric mucosa were numerically graded. The final grade assigned a stomach was the sum of all the grades. Streaks longer than 6 mm are graded in multiples of 2 mm. The degree of cytotoxicity occuring in each group is represented as the mean ±SE ulcer grade. The mean of each treatment group was compared to the control group and expressed as the % inhibition of lesion formation.

Assay [2] concerns stress-induced ulcers. Nature of the assay: Stress-induced gastric ulcers in rats. The note with it: oral or parenteral, usually 15 to 45 minutes prior to stress; restraint at 4-5 °C for 3 hours; sodium taurocholate 20 mg p.o.; rat; read-out: Stress-Induced Ulcer ED50. The class given is in vivo, Male rats. How it is done:
The purpose of this assay is to evaluate the effectiveness of the compounds of the present invention in preventing stress-induced ulcers. Male rats (280-380 g) were fasted for 18 hours (water available ad libitum) prior to use in experiments. Eight to twelve rats were used per group. Drug solutions or suspensions were prepared in physiological saline solution. Suspensions were prepared with the aid of 0.5% carboxymethylcellulose in physiological saline solution. Drugs were administered orally or parenterally at predetermined intervals (usually 15 to 45 minutes) prior to stress. This test procedure is according to the method of Senay et al., Proc. Soc. Exp. Biol. Med. 124, 1221 (1967), modified to produce a more consistent ulcer incidence. After drug administration, the rats were immobilized in metallic restrainers and placed in a cold room at 4°-5° C. for 3 hours before they were euthanized. Each rat was given 20 mg of sodium taurocholate p.o. immediately before placing it in the restrainer. After euthanizing the rats, the stomachs were excised and examined. Macroscopic ulcers were subjectively assigned a grade from 1 to 3 on the basis of increasing size. The number of ulcers in each size category was determined and multiplied by the respective grade; the addition of the resultant values gave the cumulative ulcer score. The average cumulative ulcer score of each […] group was compared to that of the control group and the percent inhibition of ulcer formation was calculated. When the responses obtained were directly proportional to the doses employed, ED50 values were determined from the dose-response curves obtained.

The subject of assay [3] is ethanol-induced ulcer. The note with it: antisecretory agents; cited from earlier work.

Consider `CN1CCN(Cc2cccc(NC(=S)c3ccccn3)c2)CC1` [Example 10, N-[3-[(4-methyl-1-piperazinyl)methyl]phenyl]-2-pyridinecarbothioamide dihydrochloride hemihydrate], for which, in assay [1], the “% Inhibition of lesion formation” value was 10%. On to `N#Cc1ccc(NC(=S)c2ccccn2)cc1` [Example 3, N-(4-Cyanophenyl)-2-pyridinecarbothioamide], for which the 50% effective dose (ED50) in assay [1] came to 1.1 mg/kg; in assay [2] it was 1.7 mg/kg.

For `CC(C)[N+](C)(CCOC(=O)C1c2ccccc2Oc2ccccc21)C(C)C` [propantheline bromide], in assay [3], the “Protection in the ethanol-induced ulcer model” value is recorded as “do not protect”. For the compound `CN/C(=N/CCSCc1nc[nH]c1C)NC#N` [cimetidine], the “Protection in the ethanol-induced ulcer model” value in assay [3] is “do not protect”. On to `S=C(Nc1ccc(CN2CCCCC2)cc1)c1ccccn1` [Example 7, N-[4-(piperidinylmethyl)phenyl]-2-pyridinecarbothioamide], for which, in assay [1], the 50% effect level (ED50) was put at a dose of 6.2 mg/kg. For `Cl.Cl.O.S=C(Nc1cccc(Cn2ccnc2)c1)c1ccccn1` [Example 5, N-[3-[(1H-Imidazol-1-yl)methyl]phenyl]-2-pyridinecarbothioamide Dihydrochloride Hydrate], the values for the ED50 in assay [1] and in assay [2] were 2.2 mg/kg and 1.9 mg/kg, respectively. The compound `Fc1ccc(NC(=S)c2ccccn2)cc1CN1CCCCC1` [Example 2, N-[4-Fluoro-3-(piperidinylmethyl)phenyl]-2-pyridinecarbothioamide Hydrochloride] returned a median effective dose (ED50) in assay [1] of 2.6 mg/kg. Still for that read-out and setting: the same measure for `Fc1ccc(NC(=S)c2ccccn2)cc1Cn1ccnc1` [Example 1, N-[4-fluoro-3-[(1H-imidazol-1-yl)methyl]phenyl]-2-pyridinecarbothioamide]: 0.88 mg/kg. As to `S=C(Nc1cccc(CN2CCCCC2)c1)c1ccccn1` [Example 6, N-[3-(piperidinylmethyl)phenyl]-2-pyridinecarbothioamide], the ED50 in assay [1] was found to be 5.3 mg/kg; in assay [2], 4.6 mg/kg. For the compound `S=C(Nc1cccc(CN2CCSCC2)c1)c1ccccn1` [Example 9, N-[3-[(4-thiomorpholinyl)methyl]phenyl]-2-pyridinecarbothioamide], the “% Inhibition of lesion formation” value in assay [1] was found to be 32%.

Take `S=C(Nc1cccc(CN2CCOCC2)c1)c1ccccn1` [Example 8, N-[3-[(4-Morpholinyl)methyl]phenyl]-2-pyridinecarbothioamide]: the “% Inhibition of lesion formation” value in assay [1] was determined as 64%. As for `N#Cc1cccc(NC(=S)c2ccccn2)c1` [Example 4, N-(3-cyanophenyl)-2-pyridinecarbothioamide], in assay [1], the 50% effect level (ED50) was put at a dose of 1.6 mg/kg.
